The source made the active and inactive calls.
Legend:
[1] = target: ADP-ribosylation factor GTPase-activating protein 1 (Rattus norvegicus, UniProt Q62848); assay: Fluorescence polarization-based biochemical high throughput dose response screening assay to identify inhibitors of ADP-ribosylation factor GTPase activating protein 1 (ARFGAP1).; format: functional
[2] = Counterscreen for inhibitors of Trypanosoma brucei methionyl tRNA synthetase (MetRS): Luminescence-based cell-based high throughput dose response assay to identify compounds that are cytotoxic to Jurkat human T lymphocyte cells.; format: functional
Fatty acid synthase [3] = target: T1, Fatty acid synthase (Homo sapiens, UniProt P49327); assay: inhibition of human FAS-TE enzyme activity – biochemical, kinetic fluorescence intensity, dose response (AID 624326); format: functional;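 also: rate of fluorescence rise from hydrolysis of a fluorogenic O-methyl fluorescein ester substrate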
[4] = target: T2, Methionyl-tRNA synthetase, putative (Trypanosoma brucei brucei, UniProt Q38C91); format: functional, Trypanosoma brucei brucei strain 927/4 GUTat10.1
T2 sequence (Q38C91 whole entry): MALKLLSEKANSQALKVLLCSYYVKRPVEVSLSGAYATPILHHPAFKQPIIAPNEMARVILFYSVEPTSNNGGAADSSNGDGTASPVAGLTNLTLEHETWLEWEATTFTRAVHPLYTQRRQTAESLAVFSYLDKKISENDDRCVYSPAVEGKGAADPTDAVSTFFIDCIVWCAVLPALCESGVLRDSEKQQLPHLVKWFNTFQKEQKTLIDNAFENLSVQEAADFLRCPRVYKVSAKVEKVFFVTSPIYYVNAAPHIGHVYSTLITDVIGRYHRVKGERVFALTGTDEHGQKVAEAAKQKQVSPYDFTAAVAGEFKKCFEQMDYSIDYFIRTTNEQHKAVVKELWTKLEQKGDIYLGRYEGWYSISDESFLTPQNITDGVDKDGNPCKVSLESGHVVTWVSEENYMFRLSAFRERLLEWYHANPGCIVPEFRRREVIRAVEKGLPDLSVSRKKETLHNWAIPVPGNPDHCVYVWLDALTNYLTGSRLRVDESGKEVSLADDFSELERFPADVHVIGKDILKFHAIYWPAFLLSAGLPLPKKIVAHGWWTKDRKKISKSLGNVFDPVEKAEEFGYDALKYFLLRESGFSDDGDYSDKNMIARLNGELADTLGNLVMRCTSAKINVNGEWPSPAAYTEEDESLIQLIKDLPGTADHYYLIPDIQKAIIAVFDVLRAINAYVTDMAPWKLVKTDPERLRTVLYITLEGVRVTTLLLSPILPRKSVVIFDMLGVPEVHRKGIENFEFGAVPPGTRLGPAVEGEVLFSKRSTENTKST

[5] = target: T2, Methionyl-tRNA synthetase, putative; format: functional, Trypanosoma brucei brucei strain 927/4 GUTat10.1; remark: listed apart in the source
Fatty acid synthase [6] = target: T1, Fatty acid synthase; assay: inhibition of human FAS-TE enzyme activity – biochemical, endpoint fluorescence intensity, uHTS hits, dose response (AID 624327); format: functional;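 also: fluorescence from hydrolysis of an O-methyl fluorescein acyl ester substrate by the enzyme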
Prothrombin = Prothrombin (Bos taurus, UniProt P00735); assay: thrombin protease inhibitors – biochemical, fluorescence polarization, uHTS hits, dose response (AID 602369); format: functional
[7] = target: Dual specificity protein phosphatase 3 (Homo sapiens, UniProt P51452); assay: VHR phosphatase inhibition, dose response, selectivity assay for STEP inhibitor project, biochemical (AID 602374); format: functional; conditions: read-out: IC50_Mean
Sequence of Dual specificity protein phosphatase 3 (P51452 whole entry): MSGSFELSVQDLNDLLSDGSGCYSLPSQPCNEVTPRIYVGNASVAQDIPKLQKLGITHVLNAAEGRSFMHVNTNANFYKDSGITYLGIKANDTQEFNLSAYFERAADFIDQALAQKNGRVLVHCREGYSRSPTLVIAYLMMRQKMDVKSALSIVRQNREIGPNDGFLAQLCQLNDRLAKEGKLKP

[8] = target: 26S proteasome non-ATPase regulatory subunit 14 (Homo sapiens, UniProt O00487); assay: inhibition of proteasome subunit RPN11 – biochemical, fluorescence polarization, uHTS hits, confirmation (AID 602368); format: functional
Sequence of 26S proteasome non-ATPase regulatory subunit 14 (O00487 whole entry): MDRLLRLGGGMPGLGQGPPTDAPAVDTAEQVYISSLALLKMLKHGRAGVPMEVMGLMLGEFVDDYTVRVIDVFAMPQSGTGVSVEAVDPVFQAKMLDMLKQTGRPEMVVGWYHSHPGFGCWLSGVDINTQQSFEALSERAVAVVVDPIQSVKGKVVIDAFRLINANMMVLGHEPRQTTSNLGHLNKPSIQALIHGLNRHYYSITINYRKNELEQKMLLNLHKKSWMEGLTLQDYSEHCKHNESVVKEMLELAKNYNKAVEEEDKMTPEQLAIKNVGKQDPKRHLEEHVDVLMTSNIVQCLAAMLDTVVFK

[9] = target: 72 kDa type IV collagenase (Homo sapiens, UniProt P08253); assay: Dose Response validation of uHTS RPN11 inhibitor hits using a MMP-2 Fluorescence assay.; format: functional
[10] = general mammalian cell viability loss – inhibitor set, cherry-pick, set 2, cytotoxicity control for miR-122 modulator project, dose response (AID 720697); format: functional, cell-based
[11] = general mammalian cell viability loss – activator set, cherry-pick, cytotoxicity control for miR-122 modulator project, dose response (AID 720690); format: functional, cell-based;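 also: HEK293T human cells scored for general mammalian cytotoxicity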
[12] = target: Tyrosine-protein phosphatase non-receptor type 11 (Homo sapiens, UniProt Q06124); assay: PTPN11 enzyme inhibitors – biochemical, selectivity assay for STEP inhibitor project, dose response (AID 602367); format: functional; conditions: read-out: IC50_Mean
Sequence of Tyrosine-protein phosphatase non-receptor type 11 (Q06124 whole entry): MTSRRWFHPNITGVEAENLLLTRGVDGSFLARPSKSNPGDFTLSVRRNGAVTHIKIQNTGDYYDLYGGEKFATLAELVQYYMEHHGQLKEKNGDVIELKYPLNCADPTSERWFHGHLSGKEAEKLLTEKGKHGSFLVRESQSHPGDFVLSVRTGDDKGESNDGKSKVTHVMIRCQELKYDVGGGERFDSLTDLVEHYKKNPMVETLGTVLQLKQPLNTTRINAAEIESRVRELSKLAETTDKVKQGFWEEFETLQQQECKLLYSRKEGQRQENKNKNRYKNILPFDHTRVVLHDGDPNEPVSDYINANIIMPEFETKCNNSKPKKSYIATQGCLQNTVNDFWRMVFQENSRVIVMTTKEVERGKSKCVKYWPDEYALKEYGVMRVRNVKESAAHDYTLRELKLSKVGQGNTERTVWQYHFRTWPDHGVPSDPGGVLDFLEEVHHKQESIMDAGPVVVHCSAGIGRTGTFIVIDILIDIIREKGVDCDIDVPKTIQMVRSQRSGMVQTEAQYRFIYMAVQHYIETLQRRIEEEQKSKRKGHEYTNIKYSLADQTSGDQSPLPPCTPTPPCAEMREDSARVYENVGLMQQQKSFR

[13] = target: T3, Tyrosine-protein phosphatase non-receptor type 22 (Homo sapiens, UniProt Q9Y2R2); assay: lymphoid phosphatase LYP inhibitors – biochemical, selectivity assay for STEP inhibitor project, dose response (AID 624241); format: functional
T3 sequence (Q9Y2R2 whole entry): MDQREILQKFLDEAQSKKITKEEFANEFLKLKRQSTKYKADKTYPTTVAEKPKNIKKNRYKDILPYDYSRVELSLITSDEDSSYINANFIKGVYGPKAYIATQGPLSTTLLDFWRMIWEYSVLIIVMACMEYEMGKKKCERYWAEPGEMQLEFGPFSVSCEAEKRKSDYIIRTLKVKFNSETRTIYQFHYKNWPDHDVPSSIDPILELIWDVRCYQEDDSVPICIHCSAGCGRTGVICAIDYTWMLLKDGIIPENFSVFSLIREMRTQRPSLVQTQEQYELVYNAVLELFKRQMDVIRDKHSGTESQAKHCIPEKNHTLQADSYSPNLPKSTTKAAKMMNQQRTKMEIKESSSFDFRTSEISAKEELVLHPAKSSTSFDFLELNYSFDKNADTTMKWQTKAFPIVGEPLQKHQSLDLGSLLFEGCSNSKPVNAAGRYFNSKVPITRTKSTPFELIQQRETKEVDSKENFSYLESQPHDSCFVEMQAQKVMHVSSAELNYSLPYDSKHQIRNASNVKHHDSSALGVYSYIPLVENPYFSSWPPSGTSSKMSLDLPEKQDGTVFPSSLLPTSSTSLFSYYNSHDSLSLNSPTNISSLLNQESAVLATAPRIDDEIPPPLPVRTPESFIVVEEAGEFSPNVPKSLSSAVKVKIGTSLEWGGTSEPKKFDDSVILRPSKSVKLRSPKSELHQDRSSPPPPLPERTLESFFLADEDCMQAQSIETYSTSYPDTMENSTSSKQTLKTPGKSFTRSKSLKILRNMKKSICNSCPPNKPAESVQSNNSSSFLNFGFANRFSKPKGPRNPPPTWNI

[14] = target: Tyrosine-protein phosphatase non-receptor type 5 (Homo sapiens, UniProt P54829); assay: PTPN5 enzyme inhibition – biochemical, fluorescence intensity, uHTS hits, confirmation (AID 602372); format: functional; conditions: read-out: IC50_Mean
Sequence of Tyrosine-protein phosphatase non-receptor type 5 (P54829 whole entry): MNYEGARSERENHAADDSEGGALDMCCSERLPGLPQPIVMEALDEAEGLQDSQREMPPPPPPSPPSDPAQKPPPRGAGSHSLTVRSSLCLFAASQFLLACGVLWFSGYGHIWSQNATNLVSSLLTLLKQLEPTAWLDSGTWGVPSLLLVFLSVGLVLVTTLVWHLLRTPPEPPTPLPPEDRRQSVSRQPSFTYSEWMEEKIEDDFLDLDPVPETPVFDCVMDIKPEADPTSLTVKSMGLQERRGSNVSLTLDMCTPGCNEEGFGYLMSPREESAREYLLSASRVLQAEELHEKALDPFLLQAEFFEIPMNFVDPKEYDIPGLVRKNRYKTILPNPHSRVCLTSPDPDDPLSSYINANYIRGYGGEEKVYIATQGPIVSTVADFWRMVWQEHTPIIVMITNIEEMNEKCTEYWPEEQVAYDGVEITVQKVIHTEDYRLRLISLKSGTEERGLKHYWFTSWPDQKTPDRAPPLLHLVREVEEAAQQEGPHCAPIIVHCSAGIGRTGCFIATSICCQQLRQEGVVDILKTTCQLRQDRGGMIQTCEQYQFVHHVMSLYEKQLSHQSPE

Beta Lactamase [15] = target: T4, Beta Lactamase (Pseudomonas aeruginosa, UniProt Q932Y6); assay: BLA reporter interference, concentration series – BLA reporter cells, FRET fluorescence, artefact control for NOD2-RIPK2 interaction inhibitor project, dose response (AID 651552); format: functional, cell-based
T4 sequence (Q932Y6 whole entry): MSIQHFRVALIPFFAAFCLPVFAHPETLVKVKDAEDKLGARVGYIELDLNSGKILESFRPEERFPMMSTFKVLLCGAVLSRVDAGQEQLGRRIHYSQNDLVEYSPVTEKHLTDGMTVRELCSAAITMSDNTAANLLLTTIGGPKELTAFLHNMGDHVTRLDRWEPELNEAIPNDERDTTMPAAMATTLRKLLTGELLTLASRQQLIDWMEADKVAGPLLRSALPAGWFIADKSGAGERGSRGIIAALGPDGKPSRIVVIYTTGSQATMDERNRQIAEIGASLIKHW

[16] = target: T5, Protein disulfide-isomerase (Homo sapiens, UniProt P07237); assay: inhibition of PDI-mediated insulin reduction – biochemical, turbidity, absorbance, cherry-picked samples, set 2, dose response (AID 624274); format: functional
T5 sequence (P07237 whole entry): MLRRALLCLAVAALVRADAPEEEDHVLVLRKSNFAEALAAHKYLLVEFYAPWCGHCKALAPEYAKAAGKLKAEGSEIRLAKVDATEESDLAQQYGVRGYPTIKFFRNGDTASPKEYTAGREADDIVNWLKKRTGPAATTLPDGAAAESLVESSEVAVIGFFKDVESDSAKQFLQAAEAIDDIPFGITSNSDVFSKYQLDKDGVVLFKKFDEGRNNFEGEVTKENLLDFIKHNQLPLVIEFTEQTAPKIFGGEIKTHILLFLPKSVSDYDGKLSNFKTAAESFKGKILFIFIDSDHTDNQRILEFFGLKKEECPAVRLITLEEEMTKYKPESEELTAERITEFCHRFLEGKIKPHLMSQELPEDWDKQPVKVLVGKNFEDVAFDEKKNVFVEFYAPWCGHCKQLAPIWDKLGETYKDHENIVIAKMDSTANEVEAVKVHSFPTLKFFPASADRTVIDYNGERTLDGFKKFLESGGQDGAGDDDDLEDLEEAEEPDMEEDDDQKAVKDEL

[17] = reduction of Shn3 3'UTR-driven luciferase in osteoblasts – cell-based, Clone20 osteoblasts, firefly luciferase, cherry-picked, dose response (AID 624132); format: functional;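 also: firefly luciferase luminescence from reporter carrying the Shn3 3'UTR in osteoblasts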
Paired box protein Pax-8 = Paired box protein Pax-8 (Homo sapiens, UniProt Q06710); assay: PAX8 transcriptional activity inhibition in RMG-I – RMG-I cells, luciferase, cherry-pick, dose response (AID 687027); format: functional, cell-based;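 also: luciferase reporter driven by Pax8 target thyroperoxidase promoter measured by SteadyGlo luminescence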
[18] = non-specific 3'UTR reporter inhibition in Clone20-Shn3RL – cell-based, Renilla luciferase, cherry-picked, counter-screen for Shn3 inhibitor project, dose response (AID 624133); format: functional
[19] = loss of viability in HepG2 cells – cell-based, CellTiter-Glo, cherry-picked, cytotoxicity control for Shn3 inhibitor project, dose response (AID 624134); format: functional
[20] = target: T5, Protein disulfide-isomerase; assay: inhibition of PDI-driven insulin aggregation – biochemical, turbidity, absorbance, cherry-picked samples, dose response (AID 602350); format: functional
[21] = Fluorescence-based cell-based high throughput dose response assay for inhibitors of the interaction of nucleotide-binding oligomerization domain containing 2 (NOD2) and the receptor-interacting serine-threonine kinase 2 (RIPK2).; format: functional; conditions: Homo sapiens
[22] = general cell-killing toxicity readout – plate reader, dry powder samples, cytotoxicity control for PAX8 inhibitor project, dose response (AID 743021); format: functional, cell-based
[23] = target: T6, ATP-dependent translocase ABCB1 (Homo sapiens, UniProt P08183); assay: P-gp JC-1 efflux blockade concentration-response – Jurkat-DNR cells, flow cytometry, set 2, dose response (AID 504569); format: functional; conditions: read-out: EC50_MICROM_;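 also: potency of pump inhibitors that raise cellular JC-1 green fluorescence up to the nicardipine level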
T6 sequence (P08183 whole entry): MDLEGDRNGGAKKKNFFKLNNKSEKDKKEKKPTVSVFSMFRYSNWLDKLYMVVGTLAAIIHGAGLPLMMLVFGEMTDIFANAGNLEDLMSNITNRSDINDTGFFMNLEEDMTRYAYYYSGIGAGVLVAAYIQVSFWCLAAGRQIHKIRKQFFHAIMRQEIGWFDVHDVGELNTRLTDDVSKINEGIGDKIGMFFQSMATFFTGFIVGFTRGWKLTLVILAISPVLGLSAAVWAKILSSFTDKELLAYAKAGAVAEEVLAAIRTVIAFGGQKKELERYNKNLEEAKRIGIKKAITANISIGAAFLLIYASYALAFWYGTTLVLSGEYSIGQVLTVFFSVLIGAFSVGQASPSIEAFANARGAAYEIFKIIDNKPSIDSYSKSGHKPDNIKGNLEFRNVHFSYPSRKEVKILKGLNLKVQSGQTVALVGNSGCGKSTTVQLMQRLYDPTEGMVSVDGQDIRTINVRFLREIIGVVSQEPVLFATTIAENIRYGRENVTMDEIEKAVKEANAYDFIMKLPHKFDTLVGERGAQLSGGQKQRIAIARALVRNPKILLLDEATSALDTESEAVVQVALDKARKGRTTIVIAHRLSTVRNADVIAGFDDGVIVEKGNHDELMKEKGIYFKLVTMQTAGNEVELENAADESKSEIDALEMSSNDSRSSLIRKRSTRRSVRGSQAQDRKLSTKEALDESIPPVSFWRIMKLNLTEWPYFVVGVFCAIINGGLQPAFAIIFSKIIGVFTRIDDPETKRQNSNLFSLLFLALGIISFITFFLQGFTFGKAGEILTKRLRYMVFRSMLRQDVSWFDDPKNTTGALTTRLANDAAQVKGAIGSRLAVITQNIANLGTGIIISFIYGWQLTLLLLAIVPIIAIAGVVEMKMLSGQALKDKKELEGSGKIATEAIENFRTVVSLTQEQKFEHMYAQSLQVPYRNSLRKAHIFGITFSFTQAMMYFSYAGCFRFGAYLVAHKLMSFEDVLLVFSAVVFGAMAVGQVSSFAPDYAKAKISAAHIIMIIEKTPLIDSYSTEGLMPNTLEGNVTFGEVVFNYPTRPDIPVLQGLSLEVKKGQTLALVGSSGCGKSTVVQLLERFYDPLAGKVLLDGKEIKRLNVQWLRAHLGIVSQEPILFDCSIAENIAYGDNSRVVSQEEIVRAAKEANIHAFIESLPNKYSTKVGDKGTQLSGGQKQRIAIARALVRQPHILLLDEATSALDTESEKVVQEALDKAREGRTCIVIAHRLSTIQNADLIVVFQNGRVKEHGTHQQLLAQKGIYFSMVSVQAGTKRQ

[24] = target: T6, ATP-dependent translocase ABCB1; assay: inhibition of BCRP-mediated JC-1 efflux – Ig-MXP3 cells, flow cytometry, set 2, dose response (AID 504566); format: functional; conditions: read-out: EC50_MICROM_;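 also: flow cytometry median green fluorescence of retained JC-1 dye; potency of efflux pump inhibition measured as rising substrate retention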
[25] = mouse fibroblast viability loss – cell-based, cherry-pick samples, set 2, cytotoxicity control for T. cruzi growth inhibitor project, dose response (AID 651817); format: functional; conditions: NIH3T3
[26] = activation of miR-122 Renilla sensor silencing – cell-based, Huh7 psiCHECK-miR122, Renilla luciferase, cherry-picked, dose response (AID 651956); format: functional;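 also: huh7 hepatoma cells stably carrying a psiCHECK-2 miR-122 sensor plasmid; renilla luciferase signal reporting endogenous miR-122 activity after 48 h compound exposure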
Beta Lactamase [27] = target: T4, Beta Lactamase; assay: VIM-2 CCF2 hydrolysis inhibition, assay artifact filter – biochemical, FRET readout, CCF2 substrate, artefact control for selective VIM-2 inhibitor project, dose response (AID 1926)
Beta-lactamase [28] = target: T7, Beta-lactamase (Pseudomonas aeruginosa, UniProt Q79MP6); assay: inhibition of IMP-1 beta-lactamase activity – biochemical, epi-absorbance, selectivity assay for VIM-2 inhibitor project, dose response (AID 1920)
T7 sequence (Q79MP6 whole entry): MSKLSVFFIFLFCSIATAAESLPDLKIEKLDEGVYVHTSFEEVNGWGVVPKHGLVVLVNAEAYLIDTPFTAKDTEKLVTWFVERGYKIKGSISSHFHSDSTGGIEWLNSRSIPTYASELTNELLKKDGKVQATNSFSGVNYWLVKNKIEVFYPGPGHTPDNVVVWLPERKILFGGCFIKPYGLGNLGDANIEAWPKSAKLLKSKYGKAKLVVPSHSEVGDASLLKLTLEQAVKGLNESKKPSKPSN

Beta Lactamase [29] = target: T4, Beta Lactamase; assay: concentration-dependent VIM-2 enzyme inhibition – biochemical, epi-absorbance readout, selective inhibitors, dose response (AID 1919)
Beta-lactamase [30] = target: Beta-lactamase (Salmonella choleraesuis (strain SC-B67), UniProt Q5J463); assay: Epi-absorbance-based counterscreen for selective VIM-2 inhibitors: dose response biochemical high throughput screening assay to identify inhibitors of TEM-1 serine-beta-lactamase.
Beta-lactamase [31] = target: T7, Beta-lactamase; assay: […] counterscreen for selective VIM-2 inhibitors: dose response biochemical high throughput screening assay to identify inhibitors of IMP-1 metallo-beta-lactamase.

SMILES: Cc1nc(NCc2ccc(S(N)(=O)=O)cc2)c2c(C)c(C)sc2n1
- IC50 [1]: 42.5 µM (inactive)

SMILES: Cc1ccc(NC(=O)CN(C)C(=O)c2ccc(Cl)c([N+](=O)[O-])c2)cc1
- IC50 [2]: 56.7 µM (inactive)
- IC50 (Fatty acid synthase [3]): 6.26 µM (active)
- IC50 [4]: 8.63 µM (active)
- IC50 [5]: 17.9 µM (inactive)
- IC50 (Fatty acid synthase [6]): 7.6 µM (active)

SMILES: COc1cc(Cl)cc(/C=N\NC(=O)c2ccc3c(c2)OCO3)c1O
- IC50 (Prothrombin): 65.6 µM (active)
- IC50 [7]: 5.02 µM (active)
- IC50 [8]: 21.5 µM (active)
- IC50 [9]: > 100 µM (inactive)
- AC50 [10]: 5.99 µM (active)
- AC50 [11]: 16.6 µM (active)
- IC50 [12]: 4.16 µM (active)
- IC50 [13]: > 100 µM (inactive)
- IC50 [14]: 9.73 µM (active)

SMILES: CS(=O)(=O)c1ccc(C(=O)OCC(=O)N2CCN(CCC3CCCCC3)CC2)cc1[N+](=O)[O-]
- IC50 (Beta Lactamase [15]): 11.6 µM (inactive)
- AC50 [16]: 0.009 µM (active)
- AC50 [17]: 2.41 µM (active)
- AC50 (Paired box protein Pax-8): 6.68 µM (active)
- AC50 [18]: 5.81 µM (active)
- AC50 [19]: 8.73 µM (active)
- AC50 [20]: < 0.009 µM (active)
- IC50 [21]: 1.84 µM (active)
- AC50 [22]: 27 µM (active)

SMILES: COc1cccc(-c2cc(N3CCN(C(=O)c4ccoc4)CC3)n3nc(-c4cccc(Cl)c4)cc3n2)c1
- EC50 [23]: 2.89 µM (active)
- EC50 [24]: 0.76 µM (active)
- AC50 [17]: 6.22 µM (active)
- AC50 [18]: > 70 µM (inactive)
- AC50 [19]: 49 µM (active)

SMILES: C[C@@H]1CN([C@@H](C)CO)C(=O)c2cccc(NC(=O)Nc3ccc(C(F)(F)F)cc3)c2O[C@@H]1CN(C)Cc1ccc(Cl)c(Cl)c1
- AC50 [25]: 14.2 µM (active)

SMILES: C[C@@H]1CN([C@@H](C)CO)C(=O)c2cc(C#CC3CCCCC3)cnc2O[C@H]1CN(C)S(=O)(=O)c1cccc(F)c1
- AC50 [26]: 13.9 µM (active)
- AC50 [11]: 24.6 µM (active)

SMILES: CCc1nnc(S)n1/N=C/C(C)=C\c1ccccc1
- IC50 (Beta Lactamase [27]): 0.332 µM (active)
- IC50 (Beta-lactamase [28]): > 59.6 µM (inactive)
- IC50 (Beta Lactamase [29]): 1.23 µM (active)
- IC50 (Beta-lactamase [30]): > 59.6 µM (inactive)
- IC50 (Beta-lactamase [31]): > 59.6 µM (inactive)

Reference: ChEMBL document CHEMBL1201862, “PubChem BioAssay data set” (2004)
